Source: patent publication US7884067B2, “Peptides derived from cadherin and methods of use thereof” (Mount Sinai School of Medicine of New York University, priority 2001, dated 2011)

Assays:
[1] = tested on: c-fos; assay: c-fos mRNA (RT-PCR) and protein (Western blot) in N2a cells; format: cell-based, mouse
Procedure: Reverse Transcriptase (RT)-PCR Analysis. Total RNA was extracted from cells using a RNeasy Mini Kit (Qiagen) according to instructions by the manufacturer. Analysis of gene expression was performed using semiquantitative RT-PCR. The following primers were used: 5′-[…]-3′ (SEQ ID NO: 13) and 5′-[…]-3′ (SEQ ID NO: 14) for c-fos; 5′-[…]-3′ (SEQ ID NO: 15) and 5′-[…]-3′ (SEQ ID NO: 16) for gapdh.
N2a cells co-transfected with plasmids pCRE-luc, pFC-PKA, and pSV-β-galactosidase were incubated for 16 hours with DMSO or with L-685,458 ([…]) and CRE-dependent transactivation was measured as described above. Data in FIG. 10A are the mean+/−s.e. of 3 experiments normalized to β-galactosidase activity and protein concentration. *, P<0.05 (Student's t test). Total RNA isolated from N2a cells treated either with DMSO or with L-685,458, was analyzed by semiquantitative RT-PCR using specific primers for c-fos and gapdh. The graph in FIG. 10B represents the relative abundance of c-fos-specific PCR products following quantitation of the mRNA signals shown in the upper panel. Extract from N2a cells treated either with DMSO or with L-685,458, were probed on WBs with anti-c-fos or anti-β-tubulin antibodies. Extract from PS1+/+ or PS1−/− mouse fibroblasts were probed on WBs with either anti-c-fos or anti-β-tubulin antibodies. Extract from PS1+/− or PS1−/− mouse embryonic brains were probed on WBs with anti-c-fos (FIG. 10E, upper panel), anti-b-tubulin (FIG. 10E, middle panel), or anti-PS1/CTF (FIG. 10E, lower panel) antibodies.

[2] = target: T1, CBP (Mus musculus, UniProt P45481); assay: Immunofluorescence staining of pN-Cad/CTF2-transfected L cells; format: cell-based; conditions: compared to non-transfected controls
T1 construct: a process that relies on endogenous CBP and CREB; endogenous in cells; host or cells: L cells transfected with vector or pN-Cad/CTF2
Procedure: Immunoprecipitations (IPs), immunoblotting and immunofluorescence. IPs were performed as described by Marambaud et al. (2002) EMBO J. 21: 1948-1956 in 4° C. HEPES buffer (25 mM HEPES, pH 7.4, 150 mM NaCl, 1× Complete protease inhibitor cocktail, Roche) containing 0.5% Nonidet P40 (NP40). For western blot (WB) analysis, cells were solubilized in 4° C. RIPA buffer (50 mM Tris-HCl, pH 8, 150 mM NaCl, 0.1% SDS, 1% NP-40, 0.5% sodium deoxycholate, 1× Complete protease inhibitor cocktail) as described by Marambaud et al. (2002). Immunofluorescence was performed as described by Georgakopoulos et al. (1999) with the following modifications: to visualize nuclei, cells were treated for 5 minutes with 4′,6-diamidino-2-phenylndole (DAPI, 1:5000; Sigma). Fluorescence microscopy and digital image acquisition were carried out using an Axioskop2 microscope (Zeizz).
To determine how N-Cad/CTF2 affects CREB-mediated transcription, the following experiments were performed. L cells transfected either with vector (vector) or pN-Cad/CTF2 (N-Cad/CTF2) plasmids were fractionated into nuclear and cytosolic fractions, and probed on WBs with anti-CBP (FIG. 11A, panel a), anti-N-cadherin (FIG. 11A, panel b), anti-β-tubulin (FIG. 11A, panel c) or anti-phosphorylated CREB (P-CREB; FIG. 11A, panel d) antibodies. […] L cells transiently transfected with pN-Cad/CTF2 were analyzed by immunofluorescence staining. […]

T1 sequence (P45481 whole entry): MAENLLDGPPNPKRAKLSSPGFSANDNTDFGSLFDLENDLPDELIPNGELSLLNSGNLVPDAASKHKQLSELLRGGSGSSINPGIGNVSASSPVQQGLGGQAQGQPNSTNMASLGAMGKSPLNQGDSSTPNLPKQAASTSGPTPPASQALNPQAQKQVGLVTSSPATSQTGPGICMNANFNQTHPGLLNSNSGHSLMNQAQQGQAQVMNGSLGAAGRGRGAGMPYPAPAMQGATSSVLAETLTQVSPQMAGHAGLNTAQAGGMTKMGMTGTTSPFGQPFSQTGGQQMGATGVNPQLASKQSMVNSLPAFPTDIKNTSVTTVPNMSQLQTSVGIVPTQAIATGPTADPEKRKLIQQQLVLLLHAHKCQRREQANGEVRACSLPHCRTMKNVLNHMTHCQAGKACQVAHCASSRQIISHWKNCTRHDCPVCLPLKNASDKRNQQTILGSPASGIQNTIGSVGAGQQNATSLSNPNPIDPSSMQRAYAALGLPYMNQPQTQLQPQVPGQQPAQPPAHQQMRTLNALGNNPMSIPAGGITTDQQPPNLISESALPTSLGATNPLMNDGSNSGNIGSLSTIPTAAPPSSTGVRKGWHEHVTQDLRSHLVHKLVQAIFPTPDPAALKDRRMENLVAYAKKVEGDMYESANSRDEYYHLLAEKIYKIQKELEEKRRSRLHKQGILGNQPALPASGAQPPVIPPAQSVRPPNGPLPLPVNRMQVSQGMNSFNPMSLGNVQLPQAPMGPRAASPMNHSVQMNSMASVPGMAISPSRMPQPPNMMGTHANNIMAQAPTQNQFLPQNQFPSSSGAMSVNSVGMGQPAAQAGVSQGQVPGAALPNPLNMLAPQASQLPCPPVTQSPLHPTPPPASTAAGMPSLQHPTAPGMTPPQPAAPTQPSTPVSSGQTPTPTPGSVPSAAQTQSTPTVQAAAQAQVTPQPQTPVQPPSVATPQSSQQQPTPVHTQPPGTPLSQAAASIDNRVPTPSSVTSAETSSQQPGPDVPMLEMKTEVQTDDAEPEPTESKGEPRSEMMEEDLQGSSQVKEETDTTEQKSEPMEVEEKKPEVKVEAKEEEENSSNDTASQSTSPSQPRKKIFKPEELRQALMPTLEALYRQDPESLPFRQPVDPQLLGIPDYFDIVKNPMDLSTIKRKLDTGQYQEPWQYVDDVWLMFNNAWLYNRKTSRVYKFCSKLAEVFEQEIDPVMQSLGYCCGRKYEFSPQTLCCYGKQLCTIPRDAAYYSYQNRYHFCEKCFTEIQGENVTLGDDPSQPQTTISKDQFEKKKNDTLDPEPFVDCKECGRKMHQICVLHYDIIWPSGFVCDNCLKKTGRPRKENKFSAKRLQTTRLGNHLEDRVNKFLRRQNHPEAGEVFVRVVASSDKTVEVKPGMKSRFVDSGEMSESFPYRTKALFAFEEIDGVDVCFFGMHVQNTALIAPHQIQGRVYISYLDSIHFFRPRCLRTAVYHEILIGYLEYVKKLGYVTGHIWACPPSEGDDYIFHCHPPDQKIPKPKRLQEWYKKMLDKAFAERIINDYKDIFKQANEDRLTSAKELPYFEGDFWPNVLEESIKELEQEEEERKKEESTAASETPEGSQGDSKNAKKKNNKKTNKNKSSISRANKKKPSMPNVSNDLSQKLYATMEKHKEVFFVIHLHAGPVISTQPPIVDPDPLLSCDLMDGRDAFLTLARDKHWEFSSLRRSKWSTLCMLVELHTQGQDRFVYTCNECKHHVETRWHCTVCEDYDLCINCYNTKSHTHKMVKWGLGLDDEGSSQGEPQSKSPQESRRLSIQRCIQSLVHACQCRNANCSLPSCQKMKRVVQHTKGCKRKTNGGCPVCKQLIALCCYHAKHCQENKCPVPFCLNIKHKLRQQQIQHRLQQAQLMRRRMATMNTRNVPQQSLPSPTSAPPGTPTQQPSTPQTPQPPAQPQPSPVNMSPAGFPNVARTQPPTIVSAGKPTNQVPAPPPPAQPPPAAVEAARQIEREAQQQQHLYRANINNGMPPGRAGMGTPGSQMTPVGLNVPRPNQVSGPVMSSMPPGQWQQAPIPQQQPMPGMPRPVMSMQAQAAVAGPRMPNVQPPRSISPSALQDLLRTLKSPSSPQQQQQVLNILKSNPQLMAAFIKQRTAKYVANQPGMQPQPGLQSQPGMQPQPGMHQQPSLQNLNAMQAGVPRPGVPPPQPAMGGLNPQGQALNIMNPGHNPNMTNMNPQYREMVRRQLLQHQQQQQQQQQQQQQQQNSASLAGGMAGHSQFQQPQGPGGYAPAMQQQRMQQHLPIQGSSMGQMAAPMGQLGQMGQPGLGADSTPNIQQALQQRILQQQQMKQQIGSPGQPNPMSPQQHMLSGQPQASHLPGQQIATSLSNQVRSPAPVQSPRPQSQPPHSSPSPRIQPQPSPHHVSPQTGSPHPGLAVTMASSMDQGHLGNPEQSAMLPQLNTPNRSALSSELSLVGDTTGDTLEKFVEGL

For `CC(C)C[C@H](NC(=O)[C@H](Cc1ccccc1)C[C@@H](O)[C@H](Cc1ccccc1)NC(=O)OC(C)(C)C)C(=O)N[C@@H](Cc1ccccc1)C(N)=O` [L-685,458], which “gapdh mRNA and β-tubulin” value ([1]; L-685,458, FIGS. 10B and 10C) is on record?
The value was “remained unchanged”.

And the “c-fos mRNA” value ([1]; L-685,458 vs untreated controls, FIG. 10B)?
The value was “stimulated”.

And the c-fos protein ([1]; L-685,458 vs untreated controls, FIG. 10C)?
The c-fos protein was “stimulated”.

B1: N-Cad/CTF2: chicken cytoplasmic domain of N-cadherin (N-Cad/CTF2) inserted into vector pECE, expressed in L cells (protein)
chain: KRRDKERQAKQLLIDPEDDVRDNILKYDEEGGGEEDQDYDLSQLQQPDTVEPDAIKPVGIRRLDERPIHAEPQYPVRSAAPHPGDIGDFINEGLKAADNDPTAPPYDSLLVFDYEGSGSTAGSLSSLNSSSSGGEQDYDYLNDWGPRFKKLADMYGGGDD
With B1 as the molecule, how does the “cytoplasmic staining for N-Cad/CTF2 and CBP” value [2] read?
The value was “clear cytoplasmic staining for both N-Cad/CTF2 and CBP”.
